Measured values: patent US20070202203A1, “ANTI-AGEING COMPOSITION” (L'OREAL, priority 2006, published 2007)

System: dermal equivalent consisting of a collagen matrix seeded with normal human fibroblasts
Test: Dermodecontracting effect: spontaneous contraction of dermal equivalent
Format: cell-based
Settings: surface area after 24 h of contraction; control = 100; manganese gluconate 0.0005%, adenosine 0.004%
Text: These conditions are intended to mimic in vitro, the dermal contractile phenomena that occur during dermal tensing of the face, for example during facial expressions. Under these conditions, in fact, the cells spontaneously express tensile forces that induce retraction of the collagen gel. […] The measurement of this surface area makes it possible to evalue the relaxing or dermocontracting effects of the substances previously brought into contact with the dermal equivalent. […] The experiment is repeated three times. The dermal equivalents are prepared as described in Asselineau et al., Exp. Cell. Res., 1985, 159, 536-539; Models in dermatology, 1987, vol 3 pp 1-7, in the following proportions: The collagen used is collagen type I (commercial solution), but collagen type III or IV can also be used. It is extracted from rat tails or from calf skin by acid hydrolysis and conserved in an acidic medium at […]; it polymerizes naturally by heating to 37° C. and by decreasing the degree of acidity. The collagen is dialysed beforehand against successive baths of water +acetic acid. […] For this, a digital image is acquired for each treated or nontreated dermal equivalent by means of a camera (CCD camera—Iris Sony DXC—107P) and the surface area is then calculated on each image by means of an image analysis system (Zeiss Axiovision 3.0). […]

Row | Molecule | % contraction
1 | Nc1ncnc2c1ncn2[C@@H]1O[C@H](CO)[C@@H](O)[C@H]1O [Adenosine, adenosine] | 82%
2 | manganese gluconate | 89%
